# Results from the RepoRT retention time repository (doi:10.1021/es4044374).
# Test: RP, Waters XBridge C18, 50 × 2.1 mm, 3.5 µm, 30 °C, 0.2 mL/min, estimated dead time 0.55 min; A: water + 0.1% formic acid, pH 3; B: methanol + 0.1% formic acid, pH 3; gradient (min/%B) 0/10 4/50 17/95 25/95 25.1/10 30/10
# Conditions: stereoisomer not certain
row,SMILES,LC retention time [min]
1,CCOP(=S)(OCC)Oc1nc(Cl)c(Cl)cc1Cl [Chlorpyrifos],16
2,Cc1ccc(NC(=O)N(C)C)cc1Cl [Chlortoluron],8.2
3,CC1(C)CC1C(=O)NC(=CCCCCSCC(N)C(=O)O)C(=O)O (centres undefined) [Cilastatin],5.2
4,O=C(O)c1cn(C2CC2)c2cc(N3CCNCC3)c(F)cc2c1=O [Ciprofloxacin],4.5
5,CN(C)CCCC1(c2ccc(F)cc2)OCc2cc(C#N)ccc21 (centres undefined) [Citalopram],6.6
6,CCC1OC(=O)C(C)C(OC2CC(C)(OC)C(O)C(C)O2)C(C)C(OC2OC(C)CC(N(C)C)C2O)C(C)(OC)CC(C)C(=O)C(C)C(O)C1(C)O (centres undefined) [Clarithromycin],9.7
7,CC(C)(C)C(=O)C(Oc1ccc(Cl)cc1)n1ccnc1 (centres undefined) [Climbazol],8.1
8,CCCC1CC(C(=O)NC(C(C)Cl)C2OC(SC)C(O)C(O)C2O)N(C)C1 (centres undefined) [Clindamycin],6.7
9,CC(C)(Oc1ccc(Cl)cc1)C(=O)O [Clofibric acid],10
10,CC1(C)CON(Cc2ccccc2Cl)C1=O [Clomazone],9.4
11,O=C(O)C(c1ccccc1Cl)N1CCc2sccc2C1 (centres undefined) [Clopidogrel carboxylic acid],5.7
12,CNC(=N[N+](=O)[O-])NCc1cnc(Cl)s1 [Clothianidin],4.9
13,Clc1ccccc1C(c1ccccc1)(c1ccccc1)n1ccnc1 [Clotrimazole],8.8
14,CN1CCN(C2=Nc3cc(Cl)ccc3Nc3ccccc32)CC1 [Clozapine],6.4
15,COC(=O)C1C(OC(=O)c2ccccc2)CC2CCC1N2C (centres undefined) [Cocaine],5
16,COc1ccc2c3c1OC1C(O)C=CC4C(C2)N(C)CCC341 (centres undefined) [Codeine],2.8
17,CCNc1nc(Cl)nc(NC(C)(C)C#N)n1 [Cyanazine],6.6
18,O=S(=O)(O)NC1CCCCC1 [Cyclamate],3.6
19,O=P1(N(CCCl)CCCl)NCCCO1 (centres undefined) [Cyclophosphamide],6.3
20,CCNC(=O)NC(=O)C(C#N)=NOC [Cymoxanil],5.6
21,CC(C1CC1)C(O)(Cn1cncn1)c1ccc(Cl)cc1 (centres undefined) [Cyproconazole],11.5
22,Cc1cc(C2CC2)nc(Nc2ccccc2)n1 [Cyprodinil],9.4
23,CNCCCC(C#N)(c1ccc(OC)c(OC)c1)C(C)C (centres undefined) [D617],6.3

row,SMILES,LC retention time [min]
1,CCCCCCCCCC[N+](C)(C)[O-] [DDAO],10.4
2,CCN(CC)C(=O)c1cccc(C)c1 [DEET],8.6
3,CCOC(=O)Nc1cccc(OC(=O)Nc2ccccc2)c1 [Desmedipham],9.2
4,CC1CC2C3CCC4=CC(=O)C=CC4(C)C3(F)C(O)CC2(C)C1(O)C(=O)CO (centres undefined) [Dexamethasone],9.5
5,COc1ccc2c(c1)C13CCCCC1C(C2)N(C)CC3 (centres undefined) [Dextromethorphan],6.6
6,CC(=O)Nc1c(I)c(NC(C)=O)c(I)c(C(=O)O)c1I [Diatrizoate],1.6
7,CN1C(=O)CN=C(c2ccccc2)c2cc(Cl)ccc21 [Diazepam],10.1
8,CCOP(=S)(OCC)Oc1cc(C)nc(C(C)C)n1 [Diazinon],13
9,CCOP(=O)(OCC)Oc1cc(C)nc(C(C)C)n1 [Diazoxon],9.5
10,COc1c(Cl)ccc(Cl)c1C(=O)O [Dicamba],7
11,N#Cc1c(Cl)cccc1Cl [Dichlobenil],8.5
12,CC(Oc1ccc(Cl)cc1Cl)C(=O)O (centres undefined) [Dichlorprop],10.7
13,O=C(O)Cc1ccccc1Nc1c(Cl)cccc1Cl [Diclofenac],12.8
14,CC1COC(Cn2cncn2)(c2ccc(Oc3ccc(Cl)cc3)cc2Cl)O1 (centres undefined) [Difenoconazole],14.1
15,O=C(Nc1ccc(F)cc1F)c1cccnc1Oc1cccc(C(F)(F)F)c1 [Diflufenican],14.4
16,COCCOCCOC [Diglyme],3.2
17,COCCN(C(=O)CS(=O)(=O)O)c1c(C)cccc1C [Dimethachlor ESA],5.9
18,COCCN(C(=O)C(=O)O)c1c(C)cccc1C [Dimethachlor OXA],6.6
19,COCCN(C(=O)CCl)c1c(C)cccc1C [Dimethachlor],9.1
20,COCC(C)N(C(=O)C(=O)O)c1c(C)csc1C (centres undefined) [Dimethenamid OXA],7.5
21,COCC(C)N(C(=O)CCl)c1c(C)csc1C (centres undefined) [Dimethenamid-P],10
22,COCC(C)N(C(=O)CS(=O)(=O)O)c1c(C)csc1C (centres undefined) [Dimethenamide ESA],6.7
23,CNC(=O)CSP(=S)(OC)OC [Dimethoate],5.2

row,SMILES,LC retention time [min]
1,COc1ccc(C(=CC(=O)N2CCOCC2)c2ccc(Cl)cc2)cc1OC [Dimethomorph],10.8
2,CCC(C)c1cc([N+](=O)[O-])cc([N+](=O)[O-])c1O (centres undefined) [Dinoseb],13
3,CC(=O)N(C)N(C(=O)C(=O)N(C)C)c1ccccc1 [Dioxoaminopyrine],5.2
4,NC(=O)Nc1ccc(Cl)c(Cl)c1 [Diuron-desdimethyl],8.3
5,CNC(=O)Nc1ccc(Cl)c(Cl)c1 [Diuron-desmethyl],8.5
6,CN(C)C(=O)Nc1ccc(Cl)c(Cl)c1 [Diuron],8.9
7,CCCCc1oc2ccc(NS(C)(=O)=O)cc2c1C(=O)c1ccc(OCCCN(CCCC)CCCC)cc1 [Dronedarone],11.5
8,CC=C1N(C)C(C)CC1(c1ccccc1)c1ccccc1 (centres undefined) [EDDP],6.5
9,CNC(C)C(O)c1ccccc1 (centres undefined) [Ephedrine],2.9
10,Fc1ccc(C2(Cn3cncn3)OC2c2ccccc2Cl)cc1 (centres undefined) [Epoxiconazole],11.7
11,CCCCc1ncc(C=C(Cc2cccs2)C(=O)O)n1Cc1ccc(C(=O)O)cc1 [Eprosartan],6.3
12,CCC1OC(=O)C(C)C(OC2CC(C)(OC)C(O)C(C)O2)C(C)C(OC2OC(C)CC(N(C)C)C2O)C(C)(O)CC(C)C(=O)C(C)C(O)C1(C)O (centres undefined) [Erythromycin],8.5
13,CCC(CO)NCCNC(CC)CO (centres undefined) [Ethambutol],9.6
14,CC1(C)C(=O)Oc2ccc(OS(C)(=O)=O)cc21 [Ethofumesate-2-keto],6
15,CCOC1Oc2ccc(OS(C)(=O)=O)cc2C1(C)C (centres undefined) [Ethofumesate],10
16,C=C1CC2C(CCC3(C)C(=O)CCC23)C2(C)C=CC(=O)C=C12 (centres undefined) [Exemestane],10.1
17,CC(C)OC(=O)C(C)(C)Oc1ccc(C(=O)c2ccc(Cl)cc2)cc1 [Fenofibrate],15.7
18,CC(C)(Oc1ccc(C(=O)c2ccc(Cl)cc2)cc1)C(=O)O [Fenofibric acid],12.6
19,CCOC(=O)NCCOc1ccc(Oc2ccccc2)cc1 [Fenoxycarb],12.6
20,CC(Cc1ccc(C(C)(C)C)cc1)CN1CCCCC1 (centres undefined) [Fenpropidin],9.5
21,CC(Cc1ccc(C(C)(C)C)cc1)CN1CC(C)OC(C)C1 (centres undefined) [Fenpropimorph],9.4
22,N#Cc1nn(-c2c(Cl)cc(C(F)(F)F)cc2Cl)c(N)c1C(F)(F)F [Fipronil-desulfinyl],12.5
23,N#Cc1nn(-c2c(Cl)cc(C(F)(F)F)cc2Cl)c(N)c1SC(F)(F)F [Fipronil-sulfide],13

row,SMILES,LC retention time [min]
1,N#Cc1nn(-c2c(Cl)cc(C(F)(F)F)cc2Cl)c(N)c1S(=O)(=O)C(F)(F)F [Fipronil-sulfone],13.5
2,N#Cc1nn(-c2c(Cl)cc(C(F)(F)F)cc2Cl)c(N)c1S(=O)C(F)(F)F (centres undefined) [Fipronil],12.6
3,N#CCNC(=O)c1cnccc1C(F)(F)F [Flonicamid],3.9
4,CC(Oc1ccc(Oc2ccc(C(F)(F)F)cn2)cc1)C(=O)O (centres undefined) [Fluazifop],10.9
5,O=[N+]([O-])c1cc(C(F)(F)F)c(Cl)c([N+](=O)[O-])c1Nc1ncc(C(F)(F)F)cc1Cl [Fluazinam],15.9
6,OC(Cn1cncn1)(Cn1cncn1)c1ccc(F)cc1F [Fluconazole],5.3
7,N#Cc1c[nH]cc1-c1cccc2c1OC(F)(F)O2 [Fludioxonil],10.7
8,CC(C)N(C(=O)CS(=O)(=O)O)c1ccc(F)cc1 [Flufenacet ESA],6
9,CC(C)N(C(=O)C(=O)O)c1ccc(F)cc1 [Flufenacet OXA],6.2
10,CC(C)N(C(=O)COc1nnc(C(F)(F)F)s1)c1ccc(F)cc1 [Flufenacet],11.7
11,O=C(O)c1ccccc1Nc1cccc(C(F)(F)F)c1 [Flufenamic acid],14.6
12,CNCCC(Oc1ccc(C(F)(F)F)cc1)c1ccccc1 (centres undefined) [Fluoxetine],9.2
13,Nc1c(Cl)c(F)nc(OCC(=O)O)c1Cl [Fluroxypyr],6.9
14,C[Si](Cn1cncn1)(c1ccc(F)cc1)c1ccc(F)cc1 [Flusilazole],12.4
15,COc1cc(OC)nc(NC(=O)NS(=O)(=O)c2cc(NC=O)ccc2C(=O)N(C)C)n1 [Foramsulfuron],7.8
16,NS(=O)(=O)c1cc(C(=O)O)c(NCc2ccco2)cc1Cl [Furosemide],6.8
17,NCC1(CC(=O)O)CCCCC1 [Gabapentin],3.6
18,CC1COC(=O)c2cc3c(cc21)C(C)(C)C(C)C3(C)C (centres undefined) [Galaxolidone],14.7
19,Nc1ccn(C2OC(CO)C(O)C2(F)F)c(=O)n1 (centres undefined) [Gemcitabine],1
20,NS(=O)(=O)c1cc2c(cc1Cl)NCNS2(=O)=O [Hydrochlorothiazide],2.2
